Test results as given in the NIST ThermoML archive (doi:10.1021/je050334+).

Settings: Liquid, Transpiration method

COC(=O)CCCCC(=O)OC [dimethyl 1,6-hexanedioate]
Settings	vapor or sublimation pressure [kPa]
293.2 K	0.00253
296.2 K	0.00336
299.2 K	0.00443
302.2 K	0.00586
305.2 K	0.0074
308.2 K	0.00991
310.2 K	0.01133
313.3 K	0.01454
316.2 K	0.01794
319.3 K	0.02356
322.2 K	0.02831
325.3 K	0.03778
328.2 K	0.04592
331.2 K	0.05704
334.2 K	0.06981

CCOC(=O)c1ccccc1 [ethyl benzoate]
Settings	vapor or sublimation pressure [kPa]
283.9 K	0.0071
286.9 K	0.0093
289 K	0.0113
292 K	0.0143
294.1 K	0.0174
295 K	0.0183
298.1 K	0.0239
299.1 K	0.0254
301.2 K	0.0312
304.2 K	0.039
307.2 K	0.0472
310.1 K	0.0597
312.3 K	0.0716
315.3 K	0.0862
317.3 K	0.1055
320.3 K	0.1297
323.4 K	0.1656
326.4 K	0.2016
329.5 K	0.2452
332.5 K	0.2944
